Laboratory results reported in ChEMBL document CHEMBL6096679, “Recent Progress in the Development of Glucose Transporter (GLUT) Inhibitors” (J Med Chem, 2025).

System: 3T3-L1
Assay: Induction of glucose uptake in mouse 3T3-L1 cells assessed as increase in glucose uptake
Type: functional, cell-based
Details: not given

Row | SMILES | IC50
1 | O=C(Oc1cccc(F)c1OC(=O)c1cccc(O)c1)c1cccc(O)c1 | 0.5 µM
2 | FC(F)(F)c1cc(NC(=S)NCc2ccccc2)ccc1Cl | 61 µM
3 | O=C(Nc1ccc(Cl)c(C(F)(F)F)c1)c1ccc(Cl)cc1 | 61 µM
4 | COc1ccc(CN(CC[C@@H](c2ccccc2)[C@H]2CCOC(C)(C)C2)C(=O)c2ccco2)cc1OC | 0.11 µM
5 | O=C(Oc1cccc(OC(=O)c2cccc(O)c2)c1OC(=O)c1cccc(O)c1)c1cccc(O)c1 | 0.3 µM
6 | O=C1CC(c2ccc(-c3cc[nH]n3)s2)c2cc(N3CCNC3=O)ccc2N1 (stereo not drawn) | 33 µM
7 | O=C(Oc1cccc(OC(=O)c2cc(O)c(O)c(O)c2)c1OC(=O)c1cc(O)c(O)c(O)c1)c1cc(O)c(O)c(O)c1 | 5 µM
8 | CC(=O)CC(=O)Nc1ccc(Cl)c(C(F)(F)F)c1 | 68 µM
9 | O=C1CC(c2cccc3[nH]ccc23)c2ccc(NC(=O)c3cccnc3)cc2N1 (stereo not drawn) | 28 µM
10 | OC[C@H]1OC(O)[C@H](O)[C@@H](O)[C@@H]1O (stereo partly drawn) [DEXTROSE] | 1.4 µM
11 | N[C@H]1C(O)O[C@H](CO)[C@@H](O)[C@@H]1O (stereo partly drawn) [GLUCOSAMINE] | 0.9 µM
12 | OC[C@H]1O[C@](O)(CO)[C@@H](O)[C@@H]1O | 3.9 µM
13 | CC/C=C\C/C=C\C/C=C\C/C=C\C/C=C\C/C=C\CCC(=O)O [DOCONEXENT] | 0.8 µM

System: not listed separately
Assay: Induction of GLUT4 translocation in mouse 3T3-L1 cells Cytosol by Western blot analysis
Type: subcellular
Details: not given

Row | IC50 | SMILES
14 | 6.94 µM | Cc1ccccc1CN(Cc1nnc(C(C)(C)C)o1)c1ccc2nc(O)[nH]c2c1
15 | 7.01 µM | CC(=O)Nc1ccc(S(=O)(=O)Nc2ccc(Nc3cc(N(C)C)nc(C)n3)cc2)cc1
16 | 5.8 µM | CS(=O)(=O)c1ccc(Nc2ccc3c(c2)OCO3)c([N+](=O)[O-])c1
17 | 3.88 µM | Cc1cc(NC(=O)CCC2Cc3ccccc3NC2=O)nc(-c2ccccc2)n1 (stereo not drawn)

Molecular target: T1, Solute carrier family 2, facilitated glucose transporter member 9 (Homo sapiens, UniProt Q9NRM0)
T1 sequence (Q9NRM0 whole entry): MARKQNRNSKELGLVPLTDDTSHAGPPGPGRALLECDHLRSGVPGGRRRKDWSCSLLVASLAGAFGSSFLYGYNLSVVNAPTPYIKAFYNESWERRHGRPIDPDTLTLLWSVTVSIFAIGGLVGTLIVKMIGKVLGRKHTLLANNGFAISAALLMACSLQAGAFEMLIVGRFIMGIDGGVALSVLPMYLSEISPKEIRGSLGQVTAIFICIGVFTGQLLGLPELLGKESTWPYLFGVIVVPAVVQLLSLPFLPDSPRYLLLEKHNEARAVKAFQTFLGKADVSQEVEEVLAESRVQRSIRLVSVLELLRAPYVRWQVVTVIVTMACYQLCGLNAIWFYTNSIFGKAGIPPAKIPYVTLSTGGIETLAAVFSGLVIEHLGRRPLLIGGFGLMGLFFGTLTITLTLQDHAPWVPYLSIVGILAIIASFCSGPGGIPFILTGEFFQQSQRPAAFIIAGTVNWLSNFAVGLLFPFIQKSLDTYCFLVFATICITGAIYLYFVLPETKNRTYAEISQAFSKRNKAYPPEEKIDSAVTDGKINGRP
Assay: Inhibition of GLUT9 (unknown origin) overexpressed in uric acid-induced HEK293 cells by patch clamp analysis
Type: cell-based
Details: not given

Row | IC50 | SMILES
18 | 0.32 µM | CCOc1cccc2c1O[C@]1(C)C[C@@H]2NC(=O)N1c1cccc(C(=O)NCCc2ccc(C)cc2)c1
19 | 11.4 µM | CCOC(=O)Cn1c2c(c3ccccc31)C[C@@H]1C[C@@H]2[C@H](OC)CN1C(=O)c1cccnc1SC
20 | 2.63 µM | O=c1cc(-c2ccc(O)cc2)oc2cc(O)cc(O)c12 [APIGENIN]
21 | 19 µM | COc1cc(/C=C/C(=O)CC(=O)/C=C/c2ccc(O)c(OC)c2)ccc1O [CURCUMIN]
22 | 49 µM | O=C(CCc1ccc(O)cc1)c1c(O)cc(O)cc1O [PHLORETIN]

Row | SMILES | IC50
23 | C=C1[C@@H](C)[C@H]2[C@H](Cc3ccccc3)NC(=O)[C@]23OC(=O)/C=C/[C@H](O)CCC[C@@H](C)C/C=C/[C@H]3[C@@H]1O [CYTOCHALASIN B] | 0.44 µM

System: A549
Assay: Inhibition of glycolysis in human A549 cells assessed as decrease in HK2 activity incubated for 48 hrs by spectrophotometric assay
Type: functional, cell-based
Details: A549, 48 h

Row | IC50 | SMILES
24 | < 0.1 µM | O=C(COc1cccc(-c2nc3c(c(Nc4ccc(-c5cn[nH]c5)cc4)n2)COC3)c1)NC1CCCC1
25 | < 0.1 µM | CC(C)NC(=O)COc1cccc(-c2nc(Nc3ccc(-c4cn[nH]c4)cc3)c3sccc3n2)c1
26 | < 0.1 µM | O=C(COc1cccc(-c2nc3c(c(Nc4ccc(-c5cn[nH]c5)cc4)n2)COC3)c1)NC1CCC1
27 | < 0.1 µM | O=C(COc1cccc(-c2nc(Nc3ccc(-c4cn[nH]c4)cc3)c3sccc3n2)c1)NC1CCCC1
28 | < 0.1 µM | CCCCC1C(=O)NC2Cc3cccc4ccc(cc34)N1C(=O)COc1cccc(c1)[C@@H](CCc1ccc(OC)c(OC)c1)OC(=O)C1CCCCN1C(=O)C(=O)C(C)(C)COC(=O)/C=C\CCN(C)C(=O)CNC(=O)C(COC(C)(C)C)N(C)C2=O (stereo partly drawn)
29 | < 0.1 µM | CC(C)NC(=O)COc1cccc(-c2nc3c(c(Nc4ccc(-c5cn[nH]c5)cc4)n2)COC3)c1

Molecular target: T2, Solute carrier family 2, facilitated glucose transporter member 1 (Homo sapiens, UniProt P11166)
T2 sequence (P11166 whole entry): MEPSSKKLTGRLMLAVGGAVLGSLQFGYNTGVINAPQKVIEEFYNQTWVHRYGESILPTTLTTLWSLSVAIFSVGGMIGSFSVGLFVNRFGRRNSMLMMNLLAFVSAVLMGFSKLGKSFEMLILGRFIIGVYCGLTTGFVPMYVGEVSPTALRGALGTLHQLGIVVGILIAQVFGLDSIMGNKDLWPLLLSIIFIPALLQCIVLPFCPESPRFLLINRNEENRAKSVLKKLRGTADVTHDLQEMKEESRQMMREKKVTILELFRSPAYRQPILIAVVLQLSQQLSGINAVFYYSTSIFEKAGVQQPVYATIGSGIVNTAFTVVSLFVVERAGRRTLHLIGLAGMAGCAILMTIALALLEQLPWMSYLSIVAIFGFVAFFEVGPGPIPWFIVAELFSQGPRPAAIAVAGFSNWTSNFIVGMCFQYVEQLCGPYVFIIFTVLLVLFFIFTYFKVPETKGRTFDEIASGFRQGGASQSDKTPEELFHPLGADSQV
Assay: Inhibition of GLUT1 in human wild-type DLD-1 cells assessed as reduction in ATP level measured after 90 mins by Celltiter-glo luminescent assay
Type: cell-based
Details: not given

Row | IC50 | SMILES
30 | 0.162 µM | CCOc1cccc2c1O[C@]1(C)C[C@@H]2NC(=O)N1c1cccc(C(=O)NCCc2ccc(C)cc2)c1
31 | 6.08 µM | COCc1c(C(=O)N2CCN(c3ccccc3)CC2)cnn1-c1ncc2c(n1)-c1ccccc1CCC2
32 | 10.6 µM | Cc1cccc(NC(=O)CN2C(=O)N/C(=C/c3cc(C)n(-c4ccc(O)cc4)c3C)C2=O)c1
33 | 2.87 µM | COc1ccccc1N1CCN(C(=O)c2cnn(-c3nccc(-c4cccs4)n3)c2C2CC2)CC1
34 | 38 µM | O=C(Oc1ccc2ccc(=O)oc2c1OC(=O)c1ccc(O)cc1)c1ccc(O)cc1
35 | 7.07 µM | CN(Cc1cccc2ncccc12)C(=O)c1cnn(-c2ncc3c(n2)-c2ccccc2CC3)c1C1CC1
36 | 0.61 µM | COc1ccc(C2=CC(c3ccc(F)cc3)N(C(=O)CSc3c(C)[nH]c4ccccc34)N2)cc1 (stereo not drawn)
37 | 6.32 µM | O=C(COc1ccc(-c2csc3ccccc23)cc1CN1CCN(c2ccccn2)CC1)NCc1nccs1
38 | 0.0596 µM | CCOC(=O)Cn1c2c(c3ccccc31)C[C@@H]1C[C@@H]2[C@H](OC)CN1C(=O)c1cccnc1SC
39 | 11.1 µM | Cc1nn(C(=O)c2ccncc2)c(C)c1/N=N/c1ccc(Cl)cc1
40 | 1 µM | CC(C)(C)c1ccc(S(=O)(=O)NCc2ccc(C(=O)Nc3cccnc3)cc2)cc1
41 | 7 µM | C/C(=N\O)c1ccc(-c2ccc(O)c(C)c2)c(Cl)c1O
42 | 11.4 µM | CC(CN1C(=O)S/C(=C\c2ccc(O)c(C(F)(F)F)c2)C1=O)(CC(F)(F)F)CC(F)(F)F
43 | 1.67 µM | COc1ccc(-c2ccc(/C(C)=N/O)c(O)c2Cl)cc1
44 | 1.89 µM | COc1ccc(-n2cc(-c3ccc(Cl)cc3)nc2NC(=O)CN(Cc2ccccc2)C(=O)c2ccc(C)cc2)cc1OC
45 | 10.8 µM | COc1ccc(-c2ccc(O)c(/C=N/O)c2)cc1F
46 | 0.29 µM | C/C(=N\O)c1ccc(-c2ccc(O)c(Cl)c2)c(Cl)c1O

System: not listed separately
Assay: Induction of GLUT1 translocation in mouse 3T3-L1 cells by Western blot analysis
Type: cell-based
Details: not given

Row | IC50 | SMILES
47 | 14700 nM | O=C(CN1C(=O)S/C(=C/c2ccco2)C1=O)Nc1ccc(Cl)c(Cl)c1
48 | 115 nM | CCOc1ccc2nc(-c3cccc(OCC(=O)NC(C)C)c3)nc(Nc3ccc(-c4cn[nH]c4)cc3)c2c1
49 | 12600 nM | O=C(CN1C(=O)S/C(=C/c2ccccc2)C1=O)Nc1nc2c(Cl)cccc2s1
50 | 26600 nM | O=C(CN1C(=O)S/C(=C/c2ccc(F)cc2)C1=O)Nc1cccc(C(F)(F)F)c1
51 | 6.2 nM | C[C@@]1(C(=O)NCc2cccnc2)Cn2nc(-c3ccccc3)cc2C(=O)N1Cc1ccc(N2CCOCC2)cc1
52 | 0.09 nM | COc1ccccc1N1CCN(c2ncnc3c2cnn3-c2cc(F)cc(F)c2)CC1
53 | 0.14 nM | COc1ccc(CC(=O)N[C@@H](Cc2cccc(Br)c2)C(=O)N[C@@H](C)c2ccccc2)cc1
54 | 2600 nM | Cc1ccc(CNc2ccc(Cl)cc2NCc2ccc(C)c(O)c2)cc1O
55 | 0.2 nM | C[C@H](NC(=O)[C@H](Cc1ccc(F)cc1)NC(=O)Cc1cccc(O)c1)c1ccccc1
56 | 11400 nM | O=C(CN1C(=O)S/C(=C/c2ccco2)C1=O)Nc1nc2ccccc2s1
57 | 5400 nM | O=C(CN1C(=O)S/C(=C/c2ccc(Cl)cc2)C1=O)Nc1ccc(Cl)cc1C(F)(F)F

Row | SMILES | IC50
58 | CCC(C)[C@H]1C(=O)NCC(=O)N(C)CC/C=C/C(=O)OCC(C)(C)C(=O)C(=O)N2CCCC[C@H]2C(=O)O[C@H](CCc2ccc(OC)c(OC)c2)c2cccc(c2)NC(=O)CCC(=O)N(C)[C@@H](CC(C)C)C(=O)N[C@H](Cc2ccccc2)C(=O)N1C (stereo partly drawn) | 78 nM
